Assay results as given in PubChem BioAssay (NCI).
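Exposure lasted 48 hours, with cells grown in 96-well plates and compounds tested at five concentrations. Here, GI50 denotes the concentration required for 50% inhibition of growth. TGI marks complete inhibition of growth.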

Legend:
Assay in all cases: DTP human tumour cell line panel, 48 h
786-0 renal = system: 786-0 renal
A549 NSCLC = system: A549 NSCLC
CCRF-CEM leukemia = system: CCRF-CEM leukemia
DLD-1 colon = system: DLD-1 colon
DMS 114 small cell lung = system: DMS 114 small cell lung
DMS 273 small cell lung = system: DMS 273 small cell lung
EKVX NSCLC = system: EKVX NSCLC
K-562 leukemia = system: K-562 leukemia
LXFL 529 NSCLC = system: LXFL 529 NSCLC
M14 melanoma = system: M14 melanoma
NCI-H226 lung = system: NCI-H226 lung
NCI-H460 lung = system: NCI-H460 lung
SK-MEL-2 melanoma = system: SK-MEL-2 melanoma
SR leukemia = system: SR leukemia
PC-3 prostate = system: PC-3 prostate
RPMI-8226 leukemia = system: RPMI-8226 leukemia
XF 498 CNS = system: XF 498 CNS

NC(CCC(=O)NC(CSC(=O)N(O)c1ccccc1)C(=O)NCC(=O)O)C(=O)O (centres undefined)
TGI (786-0 renal): > 1000 µM
TGI (A549 NSCLC): > 1000 µM
TGI (CCRF-CEM leukemia): > 1000 µM
TGI (DLD-1 colon): > 1000 µM
TGI (DMS 114 small cell lung): > 1000 µM
TGI (DMS 273 small cell lung): > 1000 µM
TGI (EKVX NSCLC): > 1000 µM
TGI (K-562 leukemia): > 1000 µM
TGI (LXFL 529 NSCLC): > 1000 µM
TGI (M14 melanoma): > 1000 µM
TGI (NCI-H226 lung): > 1000 µM
TGI (NCI-H460 lung): > 1000 µM
TGI (SK-MEL-2 melanoma): > 1000 µM
TGI (SR leukemia): > 1000 µM

Cc1ccc(C2SC(N)=Nc3c2c(C)nn3C(=O)c2ccccc2O)cc1 (centres undefined)
TGI (786-0 renal): > 10 µM
TGI (A549 NSCLC): > 10 µM
TGI (CCRF-CEM leukemia): > 10 µM
TGI (EKVX NSCLC): > 10 µM
TGI (K-562 leukemia): > 10 µM
TGI (M14 melanoma): > 10 µM
TGI (NCI-H226 lung): > 10 µM
TGI (NCI-H460 lung): > 10 µM
TGI (PC-3 prostate): > 10 µM
TGI (RPMI-8226 leukemia): > 10 µM
TGI (SK-MEL-2 melanoma): > 10 µM
TGI (SR leukemia): > 10 µM

Cc1c(F)c(N)c2c(=O)cc(-c3ccc(N)c(F)c3)oc2c1F
TGI (786-0 renal): 34.9 µM
TGI (A549 NSCLC): 59 µM
TGI (CCRF-CEM leukemia): > 100 µM
TGI (EKVX NSCLC): 54.7 µM
TGI (K-562 leukemia): > 92.9 µM
TGI (M14 melanoma): > 100 µM
TGI (NCI-H226 lung): 36 µM
TGI (NCI-H460 lung): 24.2 µM
TGI (PC-3 prostate): 45.6 µM
TGI (RPMI-8226 leukemia): > 96.1 µM
TGI (SK-MEL-2 melanoma): 81.2 µM
TGI (SR leukemia): 82.8 µM

O=C(NNCc1ccco1)c1cc2ccccc2[nH]1
TGI (786-0 renal): > 100 µM
TGI (A549 NSCLC): > 100 µM
TGI (CCRF-CEM leukemia): > 100 µM
TGI (EKVX NSCLC): > 100 µM
TGI (K-562 leukemia): > 100 µM
TGI (M14 melanoma): > 100 µM
TGI (NCI-H226 lung): > 100 µM
TGI (NCI-H460 lung): > 100 µM
TGI (PC-3 prostate): > 100 µM
TGI (RPMI-8226 leukemia): > 100 µM
TGI (SK-MEL-2 melanoma): > 100 µM
TGI (SR leukemia): > 100 µM

O=C1C=CC2(O)OCCN(CCO)C2=C1 (centres undefined) (tested in a mixture with another compound)
TGI (786-0 renal): > 100 µM
TGI (A549 NSCLC): > 100 µM
TGI (CCRF-CEM leukemia): > 100 µM
TGI (EKVX NSCLC): > 100 µM
TGI (K-562 leukemia): > 100 µM
TGI (M14 melanoma): > 100 µM
TGI (NCI-H226 lung): > 100 µM
TGI (NCI-H460 lung): > 100 µM
TGI (PC-3 prostate): > 100 µM
TGI (RPMI-8226 leukemia): > 100 µM
TGI (SK-MEL-2 melanoma): > 100 µM
TGI (SR leukemia): > 100 µM

COCn1cnc2c(=O)n(-c3ccc(OC)cc3)c(=S)n(-c3ccc(OC)cc3)c21
TGI (786-0 renal): > 100 µM
TGI (A549 NSCLC): > 100 µM
TGI (CCRF-CEM leukemia): > 100 µM
TGI (EKVX NSCLC): > 100 µM
TGI (K-562 leukemia): > 100 µM
TGI (M14 melanoma): > 100 µM
TGI (NCI-H226 lung): > 100 µM
TGI (NCI-H460 lung): > 100 µM
TGI (PC-3 prostate): > 100 µM
TGI (RPMI-8226 leukemia): > 100 µM
TGI (SK-MEL-2 melanoma): > 100 µM
TGI (SR leukemia): > 100 µM

CC1(c2cccc(Cl)c2)CC(c2cccc(Cl)c2)=C(C#N)C(=C(C#N)C#N)N1 (centres undefined)
TGI (786-0 renal): 30.1 µM
TGI (A549 NSCLC): 42.1 µM
TGI (CCRF-CEM leukemia): > 100 µM
TGI (EKVX NSCLC): 46.5 µM
TGI (K-562 leukemia): > 100 µM
TGI (M14 melanoma): 31.9 µM
TGI (NCI-H226 lung): 60.9 µM
TGI (NCI-H460 lung): 94.3 µM
TGI (PC-3 prostate): 34.3 µM
TGI (RPMI-8226 leukemia): 59.4 µM
TGI (SK-MEL-2 melanoma): 64.8 µM
TGI (SR leukemia): 65.3 µM

CSc1sc(=S)sc1C(=O)N(C)c1ccccc1
TGI (786-0 renal): > 100 µM
TGI (A549 NSCLC): > 100 µM
TGI (CCRF-CEM leukemia): > 100 µM
TGI (DMS 114 small cell lung): > 100 µM
TGI (DMS 273 small cell lung): > 100 µM
TGI (EKVX NSCLC): > 100 µM
TGI (K-562 leukemia): > 100 µM
TGI (LXFL 529 NSCLC): > 100 µM
TGI (M14 melanoma): > 100 µM
TGI (NCI-H226 lung): > 100 µM
TGI (NCI-H460 lung): > 100 µM
TGI (RPMI-8226 leukemia): > 100 µM
TGI (SK-MEL-2 melanoma): > 100 µM
TGI (SR leukemia): > 100 µM
TGI (XF 498 CNS): > 100 µM

CC1(C)OC(CP(c2ccccc2)c2ccccc2)C(CP(c2ccccc2)c2ccccc2)O1 (centres undefined)
TGI (786-0 renal): > 100 µM
TGI (A549 NSCLC): > 100 µM
TGI (CCRF-CEM leukemia): 45.5 µM
TGI (EKVX NSCLC): > 100 µM
TGI (K-562 leukemia): > 100 µM
TGI (M14 melanoma): > 100 µM
TGI (NCI-H226 lung): > 100 µM
TGI (NCI-H460 lung): > 100 µM
TGI (PC-3 prostate): > 100 µM
GI50 (RPMI-8226 leukemia): 2.75 µM
TGI (RPMI-8226 leukemia): 14.4 µM
TGI (SK-MEL-2 melanoma): 10.7 µM
TGI (SR leukemia): > 100 µM

C=CCN1C(=O)/C(=C/c2ccc(C)cc2)NC1=S
TGI (786-0 renal): > 100 µM
TGI (A549 NSCLC): > 100 µM
TGI (CCRF-CEM leukemia): > 100 µM
TGI (EKVX NSCLC): 97.1 µM
TGI (K-562 leukemia): > 100 µM
TGI (M14 melanoma): > 100 µM
TGI (NCI-H226 lung): > 100 µM
TGI (NCI-H460 lung): > 100 µM
TGI (PC-3 prostate): > 100 µM
TGI (RPMI-8226 leukemia): > 100 µM
TGI (SK-MEL-2 melanoma): > 100 µM
TGI (SR leukemia): > 100 µM

COc1c(Br)cc(/C=C(\C#N)c2cccnc2)cc1Br
TGI (786-0 renal): > 100 µM
TGI (A549 NSCLC): > 100 µM
TGI (CCRF-CEM leukemia): > 100 µM
TGI (EKVX NSCLC): > 100 µM
TGI (K-562 leukemia): > 100 µM
TGI (M14 melanoma): > 100 µM
TGI (NCI-H226 lung): > 100 µM
TGI (NCI-H460 lung): > 100 µM
TGI (PC-3 prostate): > 100 µM
TGI (RPMI-8226 leukemia): > 100 µM
TGI (SK-MEL-2 melanoma): > 100 µM
TGI (SR leukemia): > 100 µM

Nc1ccc(CCSSCCc2ccc(N)cc2)cc1
TGI (786-0 renal): 36.6 µM
TGI (A549 NSCLC): > 100 µM
TGI (CCRF-CEM leukemia): > 100 µM
TGI (EKVX NSCLC): > 100 µM
TGI (K-562 leukemia): > 62.3 µM
TGI (M14 melanoma): > 74.2 µM
TGI (NCI-H226 lung): > 100 µM
TGI (NCI-H460 lung): 86.8 µM
TGI (PC-3 prostate): > 78.9 µM
TGI (RPMI-8226 leukemia): > 81.8 µM
TGI (SK-MEL-2 melanoma): 43.4 µM
TGI (SR leukemia): 31.6 µM

Nc1ncnc2c1ncn2C1OC(CO)C(O)C(O)C1O (centres undefined)
TGI (786-0 renal): > 100 µM
TGI (A549 NSCLC): > 100 µM
TGI (CCRF-CEM leukemia): > 100 µM
TGI (EKVX NSCLC): > 100 µM
TGI (K-562 leukemia): > 100 µM
TGI (M14 melanoma): > 100 µM
TGI (NCI-H226 lung): > 100 µM
TGI (NCI-H460 lung): > 100 µM
TGI (PC-3 prostate): > 100 µM
TGI (RPMI-8226 leukemia): > 100 µM
TGI (SK-MEL-2 melanoma): > 100 µM
TGI (SR leukemia): > 100 µM

C/C(=N\NC(=O)c1ccncc1)c1ccccc1F
TGI (786-0 renal): > 10 µM
TGI (A549 NSCLC): > 10 µM
TGI (CCRF-CEM leukemia): > 10 µM
TGI (K-562 leukemia): > 10 µM
TGI (M14 melanoma): > 10 µM
TGI (NCI-H226 lung): > 10 µM
TGI (NCI-H460 lung): > 10 µM
TGI (PC-3 prostate): > 10 µM
TGI (RPMI-8226 leukemia): > 10 µM
TGI (SK-MEL-2 melanoma): > 10 µM
TGI (SR leukemia): > 10 µM

COc1cccc(N2C(=O)/C(=C\c3ccccc3)SC2c2cc(OC)c(OC)c(OC)c2)c1 (centres undefined)
TGI (786-0 renal): > 100 µM
TGI (A549 NSCLC): > 100 µM
TGI (CCRF-CEM leukemia): > 100 µM
TGI (EKVX NSCLC): > 100 µM
TGI (K-562 leukemia): > 100 µM
TGI (M14 melanoma): > 100 µM
TGI (NCI-H226 lung): > 100 µM
TGI (PC-3 prostate): > 100 µM
TGI (RPMI-8226 leukemia): > 100 µM
TGI (SK-MEL-2 melanoma): > 100 µM
TGI (SR leukemia): > 100 µM

CCOc1cc2c(cc1O)CC[C@@H]1[C@@H]2CC[C@]2(C)C(N)CC[C@@H]12 (some centres undefined)
TGI (786-0 renal): 13.8 µM
TGI (A549 NSCLC): 16.1 µM
TGI (CCRF-CEM leukemia): 18.2 µM
TGI (EKVX NSCLC): 20.9 µM
TGI (K-562 leukemia): 27.5 µM
TGI (M14 melanoma): 25.2 µM
TGI (NCI-H226 lung): 10.4 µM
TGI (NCI-H460 lung): 11.6 µM
TGI (PC-3 prostate): 13.7 µM
TGI (RPMI-8226 leukemia): 10 µM
TGI (SK-MEL-2 melanoma): 21.3 µM
TGI (SR leukemia): 7 µM

COc1ccc(N2C(=O)C(C)SC2c2cc3cc(Br)ccc3nc2Cl)cc1 (centres undefined)
TGI (786-0 renal): > 100 µM
TGI (A549 NSCLC): > 100 µM
TGI (CCRF-CEM leukemia): > 100 µM
TGI (EKVX NSCLC): 98.5 µM
TGI (K-562 leukemia): > 100 µM
TGI (M14 melanoma): > 100 µM
TGI (NCI-H226 lung): > 100 µM
TGI (NCI-H460 lung): > 100 µM
TGI (PC-3 prostate): > 100 µM
TGI (RPMI-8226 leukemia): > 100 µM
TGI (SK-MEL-2 melanoma): 48.4 µM
TGI (SR leukemia): 72.3 µM

Nc1nc2n[nH]nc2c(=O)[nH]1
TGI (786-0 renal): > 100 µM
TGI (A549 NSCLC): > 100 µM
TGI (CCRF-CEM leukemia): > 100 µM
TGI (DLD-1 colon): > 100 µM
TGI (DMS 114 small cell lung): 54.7 µM
TGI (DMS 273 small cell lung): 18.2 µM
TGI (EKVX NSCLC): > 100 µM
TGI (K-562 leukemia): > 100 µM
TGI (LXFL 529 NSCLC): > 100 µM
TGI (M14 melanoma): 2.98 µM
TGI (NCI-H226 lung): 57.5 µM
TGI (NCI-H460 lung): > 89.4 µM
TGI (PC-3 prostate): > 100 µM
TGI (RPMI-8226 leukemia): 15.7 µM
TGI (SK-MEL-2 melanoma): 1.69 µM
TGI (SR leukemia): 20.4 µM
